Assays:
[1] = 298 K; 101.33 kPa; Crystal; X-ray diffraction
[2] = molar heat capacity at constant pressure; conditions: 101.33 kPa, Crystal, DSC
[3] = xn = mol fraction of the nth substance listed; conditions: 298 K; 101.33 kPa; Crystal; X-ray diffraction; x1 = 1
[4] = molar heat capacity at constant pressure; xn = mol fraction of the nth substance listed; conditions: 101.33 kPa, Crystal, DSC, x1 = 1

O=P([O-])([O-])[O-].[La+3] [lanthanum orthophosphate]
Conditions	mass density [kg/m3]
[1]	5063

[2]
Conditions	molar heat capacity at constant pressure [J/K/mol]
298 K	97.5
300 K	98
350 K	107.3
400 K	114.3
450 K	120
500 K	124.9
550 K	129.3
600 K	133.2
650 K	136.9
700 K	140.4
750 K	143.8
800 K	147.1

O=P([O-])([O-])[O-].[La+3] [lanthanum orthophosphate] + O=P([O-])([O-])[O-].O=P([O-])([O-])[O-].[Sr+2].[Th+4]
Conditions	mass density [kg/m3]
[3]	5063

[4]
Conditions	molar heat capacity at constant pressure [J/K/mol]
298 K	97.5
300 K	98
350 K	107.3
400 K	114.3
450 K	120
500 K	124.9
550 K	129.3
600 K	133.2
650 K	136.9
700 K	140.4
750 K	143.8
800 K	147.1

[O-2].[O-2].[Zr+4] [zirconium oxide]
[2]
Conditions	molar heat capacity at constant pressure [J/K/mol]
313 K	56.9
323 K	57.7
333 K	58.6
343 K	59.3
353 K	60
363 K	60.7
373 K	61.4
383 K	61.9
393 K	62.5
403 K	63
413 K	63.6
423 K	64
433 K	64.5
443 K	64.9
453 K	65.4
463 K	65.8
473 K	66.2
483 K	66.6
493 K	66.9
503 K	67.3
513 K	67.6
523 K	68
533 K	68.3
543 K	68.6
553 K	68.9
563 K	69.2
573 K	69.5
583 K	69.8
593 K	70.1
603 K	70.4
613 K	70.6
623 K	70.9
633 K	71.2
643 K	71.4
653 K	71.7
663 K	71.9
673 K	72.2
683 K	72.4
693 K	72.7
703 K	72.9
713 K	73.1
723 K	73.4
733 K	73.6
743 K	73.8
753 K	74.1
763 K	74.3
773 K	74.5
783 K	74.7
793 K	74.9
800 K	75.1
